Reference: patent US5834461A, “Tricyclic benzazepine vasopressin antagonists” (American Cyanamid Company, priority 1997, dated 1998)

Columns and labels:
[1] = target: vasopressin V1 receptor (rat liver plasma membranes) (Rattus norvegicus, UniProt P30560); assay: Binding Assay to Rat Hepatic V1 Receptors; settings: for IC50: rat hepatic V1
Procedure: Rat liver plasma membranes expressing the vasopressin V1 receptor subtypes are isolated by sucrose density gradient according to the method described by Lesko et al., (1973). These membranes are quickly suspended in 50.0 mM Tris.HCl buffer, pH 7.4, containing 0.2% bovine serum albumin (BSA) and 0.1 mM phenylmethylsulfonylfluoride (PMSF) and kept frozen at -70° C. until used in subsequent binding experiments. For binding experiments, the following is added to the wells of a ninety-six well format microtiter plate: 100 μl of 100.0 mM Tris.HCl buffer containing 10.0 mM MgCl2, 0.2% heat inactivated BSA and a mixture of protease inhibitors: leupeptin, 1.0 mg %; aprotinin, 1.0 mg %; 1,10-phenanthroline,2.0 mg %; trypsin inhibitor, 10.0 mg % and 0.1 mM PMSF, 20.0 μl of [phenylalanyl-3,4,5,-^3 H] vasopressin (S.A. 45.1 Ci/mmole) at 0.8 nM, and the reaction initiated by the addition of 80 μl of tissue membranes containing 20 μg of tissue protein. The plates are kept undisturbed on the bench top at room temperature for 120 min. to reach equilibrium. Non-specific samples are assayed in the presence of 0.1 μM of the unlabeled antagonist phenylalanylvasopressin, added in 20.0 μl volume.
For test compounds, these are solubilized in 50% dimethylsulfoxide (DMSO) and added in 20.0 μl volume to a final incubation volume of 200 μl. Upon completion of binding, the content of each well is filtered off, using a Brandel® cell Harvester (Gaithersburg, Md.). The radioactivity trapped on the filter disk by the ligand-receptor complex is assessed by liquid scintillation counting in a Packard LS Counter, with an efficiency of 65% for tritium.

[2] = target: T1, rat kidney medullary V2 receptors (Rattus norvegicus, UniProt Q00788); assay: Binding Assay to Rat Kidney Medullary V2 Receptors; settings: for IC50: rat kidney medullary V2
T1 construct: Medullary tissues from rat kidneys are dissected out; from tissue; host or cells: rat kidney medulla membranes
Procedure: Medullary tissues from rat kidneys are dissected out, cut into small pieces and soaked in a […] sodium chloride solution containing 1.0 mM EDTA with many changes of the liquid phase, until the solution is clear of blood. The tissue is homogenized in a 0.25M sucrose solution containing 1.0 mM EDTA and 0.1 mM PMSF using a Potter-Elvehjem homogenizer with a teflon pestle. The homogenate is filtered through several layers (4 layers) of cheese cloth. The filtrate is rehomogenized using a dounce homogenizer, with a tight fitting pestle. The final homogenate is centrifuged at 1500×g for 15 min. The nuclear pellet is discarded and the supernatant fluid recentrifuged at 40,000×g for 30 min. The resulting pellet formed contains a dark inner part with the exterior, slightly pink. The pink outer part is suspended in a small amount of 50.0 mM Tris.HCl buffer, pH 7.4. The protein content is determined by the Lowry's method (Lowry et al., J. Biol. Chem., 1953). The membrane suspension is stored at -70° C., in 50.0 mM Tris.HCl, containing 0.2% inactivated BSA and 0.1 mM PMSF in aliquots of 1.0 ml containing 10.0 mg protein per ml of suspension until use in subsequent binding experiments.
For binding experiments, the following is added in μl volume to wells of a 96 well format of a microtiter plate: 100.0 μl of 100.0 mM Tris.HCl buffer containing 0.2% heat inactivated BSA, 10.0 mM MgCl2 and a mixture of protease inhibitors: leupeptin, 1.0 mg %; aprotinin, 1.0 mg %; 1,10-phenanthroline, 2.0 mg %; trypsin inhibitor, 10.0 mg % and 0.1 mM PMSF, 20.0 μl of [^3 H] Arginine^8, vasopressin (S.A. 75.0 Ci/mmole) at 0.8 nM and the reaction initiated by the addition of 80.0 μl of tissue membranes (200.0 μg tissue protein). The plates are left undisturbed on the bench top for 120 min to reach equilibrium. Non-specific binding is assessed in the presence of 1.0 μM of unlabeled ligand, added in 20 μl volume. For test compounds, these are solubilized in 50% dimethylsulfoxide (DMSO) and added in 20.0 μl volume to a final incubation volume of 200 μl. Upon completion of binding, the content of each well is filtered off, using a Brandel® cell Harvester (Gaithersburg, Md.). The radioactivity trapped on the filter disk by the ligand-receptor complex is assessed by liquid scintillation counting in a Packard LS Counter, with an efficiency of 65% for tritium.

vasopressin V1 = assay: Vasopressin V1 Antagonist Activity in Conscious Rats (vasopressin vasopressor response); type: in vivo, rat (spontaneously hypertensive rats); settings: 10 mg/kg i.v.
Procedure: Conscious rats are restrained in a supine position with elastic tape. The area at the base of the tail is locally anesthetized by subcutaneous infiltration with 2% procaine (0.2 ml). Using aseptic technique the ventral caudal tail artery is isolated and a cannula made of PE 10 and 20 (heat-fused) tubing is passed into the lower abdominal aorta. The cannula is secured, heparinized (1000 i.u./cc), sealed and the wound closed with one or two stitches of Dexon 4-0. The caudal vein is also cannulated in the same manner for intravenous drug administration. The duration of the surgery is approximately 5 minutes. Additional local anesthesia (2% procaine or lidocaine) is provided as needed.
The animals are placed in plastic restraining cages in an upright position. The cannula is attached to a Statham P23Db pressure transducer and pulsatile blood pressure is recorded. […] The vasopressin injections are repeated 30, 60, 90, 120, 180, 240 and 300 min. later. Percentage of antagonism by the compound is calculated using the pre-drug vasopressin vasopressor response as 100%.

[3] = 2 h, rat hepatic, read-out: V1, % at concentration in brackets
[4] = rat kidney, read-out: V2, % at concentration in brackets

vasopressin V1 receptor (rat liver plasma membranes), sequence (P30560 whole entry): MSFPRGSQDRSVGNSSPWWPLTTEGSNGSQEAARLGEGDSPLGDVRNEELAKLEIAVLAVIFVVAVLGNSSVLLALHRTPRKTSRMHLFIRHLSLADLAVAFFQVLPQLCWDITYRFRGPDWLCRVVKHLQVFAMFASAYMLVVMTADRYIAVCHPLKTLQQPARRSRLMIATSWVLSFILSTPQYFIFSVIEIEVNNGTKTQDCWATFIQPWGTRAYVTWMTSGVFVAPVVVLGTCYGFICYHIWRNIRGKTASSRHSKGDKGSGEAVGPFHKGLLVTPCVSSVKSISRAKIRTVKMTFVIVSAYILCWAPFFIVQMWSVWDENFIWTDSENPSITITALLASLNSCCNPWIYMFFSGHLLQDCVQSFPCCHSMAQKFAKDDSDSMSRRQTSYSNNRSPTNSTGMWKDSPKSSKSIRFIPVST
T1 sequence (Q00788 whole entry): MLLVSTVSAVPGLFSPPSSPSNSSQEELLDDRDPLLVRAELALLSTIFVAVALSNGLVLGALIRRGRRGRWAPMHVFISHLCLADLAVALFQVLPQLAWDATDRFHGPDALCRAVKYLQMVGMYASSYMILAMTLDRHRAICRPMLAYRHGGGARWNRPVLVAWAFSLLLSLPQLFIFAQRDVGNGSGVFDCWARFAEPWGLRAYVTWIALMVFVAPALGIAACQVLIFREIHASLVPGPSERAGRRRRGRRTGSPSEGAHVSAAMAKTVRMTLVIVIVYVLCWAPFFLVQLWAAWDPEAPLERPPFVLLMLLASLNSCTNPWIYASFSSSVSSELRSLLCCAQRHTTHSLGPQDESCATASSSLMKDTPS

SMILES | IC50 [1] [µM] | IC50 [2] [µM] | also measured
O=C(Nc1ccc(C(=O)N2Cc3ccccc3Cc3ccccc32)cc1)c1ccccc1C(F)(F)F [Example 166, N-[4-[(6,11-Dihydro-5H-dibenz(b,e]azepin-5-yl)carbonyl]phenyl]-2-trifluoromethylbenzamide] | 0.083 | 0.245 | 
Cc1ccc(C)c(C(=O)Nc2ccc(C(=O)N3Cc4ccccc4Cc4ccccc43)cc2)c1 [Example 12, N-[4-[(6,11-Dihydro-5H-dibenz[b,e]azepin-5-yl)carbonyl]phenyl]-2,5-dimethylbenzamide] | 0.39 | 0.18 | 
COc1cc(Cl)ccc1C(=O)Nc1ccc(C(=O)N2Cc3ccccc3Cc3ccccc32)cc1 [Example 165, N-[4-[(6,11-Dihydro-5H-dibenz[b,e]azepin-5-yl)carbonyl]phenyl]-2-methoxy-4-chlorobenzamide] | 0.49 | 0.37 | 
O=C(Nc1ccc(C(=O)N2Cc3ccccc3Cc3ccccc32)cc1)c1ccccc1OC(F)(F)F [Example 25, N-[4-[(6,11-Dihydro-5H-dibenz[b,e]azepin-5-yl)carbonyl]phenyl]-2-(trifluoromethoxy)benzamide] | 0.052 | 0.56 | 
O=C(Nc1ccc(C(=O)N2Cc3ccccc3Cc3ccccc32)cc1)c1cc(Cl)ccc1Cl [Example 9, N-[4-[(6,11-Dihydro-5H-dibenz[b,e]azepin-5-yl)carbonyl]phenyl]-2,5-dichlorobenzamide] | 1.1 | 0.28 | 
Cc1ccccc1C(=O)Nc1ccc(C(=O)N2Cc3cc(S(=O)(=O)N(C)C)ccc3Oc3ccccc32)cc1 [Example 23, N-[4-[[2-[(Dimethylamino)sulfonyl]dibenz[b,f][1,4]oxazepin-10(11H)-yl]carbonyl]phenyl]-2-methylbenzamide] |  |  | inhibition at 50 µM [1, 3]: 19%; inhibition at 50 µM [2, 4]: 47%
Cc1ccsc1C(=O)Nc1ccc(C(=O)N2Cc3ccccc3-c3ccccc32)cc1 [Example 3, 3-Methyl-N-[4-[(5(6H)-phenanthridinyl)carbonyl]-phenyl]-2-thiophenecarboxamide] | 0.17 | 0.42 | 
Cc1occc1C(=O)Nc1ccc(C(=O)N2Cc3ccccc3Cc3ccccc32)cc1 [Example 119] | 0.039 | 1.1 | 
O=C(Nc1ccc(C(=O)N2Cc3ccccc3Cc3ccccc32)cc1)c1ccc(F)cc1F [Example 21, N-[4-[(6,11-Dihydro-5H-dibenz[b,e]azepin-5-yl)carbonyl]phenyl]-2,4-difluorobenzamide] | 0.28 | 0.44 | 
O=C(Nc1ccc(C(=O)N2Cc3ccccc3Cc3ccccc32)cc1)c1ccc(C(F)(F)F)cc1 [Example 20, N-[4-[(6,11-Dihydro-5H-dibenz[b,e]azepin-5-yl)carbonyl]phenyl]-4-(trifluoromethyl)benzamide] |  |  | inhibition at 10 µM ([1]; 2 h, 10 μM, rat hepatic, read-out: V1, % at concentration in brackets): 17%; inhibition at 10 µM ([2]; 10 μM, rat kidney, read-out: V2, % at concentration in brackets): 48%
O=C(Nc1ccc(C(=O)N2Cc3ccccc3Sc3ccccc32)cc1)c1ccc(Cl)cc1Cl [Example 449, N-[4-[(Dibenz[b,f][1,4]thiazepin-10(11H)-yl)-carbonyl]phenyl]-2 4-dichlorobenzamide] | 0.36 | 0.25 | MAX % Inhibition (vasopressin V1): 45%; Time of max % inhibition (vasopressin V1): 90 min
Cc1ccsc1C(=O)Nc1ccc(C(=O)N2Cc3ccccc3Cc3ccccc32)cc1 [Example 18, N-[4-[(6,11-Dihydro-5H-dibenz[b,e]azepin-5-yl)carbonyl]phenyl]-3-methyl-2-thiophenecarboxamide] | 0.084 | 0.52 | 
Cc1ccc(C(=O)Nc2ccc(C(=O)N3Cc4ccccc4Cc4ccccc43)cc2)c(C)c1 [Example 13, N-[4-[(6,11-Dihydro-5H-dibenz[b,e]azepin-5-yl)carbonyl]phenyl]2,4-dimethylbenzamide] | 0.34 | 0.3 | 
Cc1ccccc1C(=O)Nc1ccc(C(=O)N2Cc3ccccc3CCc3ccccc32)cc1 [Example 6, N-[4-[(11,12-Dihydrodibenz[b,f]azocin-5-(6H)-yl)-carbonyl]phenyl]-2-methylbenzamide] |  |  | inhibition at 50 µM [1, 3]: 60%; inhibition at 50 µM [2, 4]: 80%
O=C(Nc1ccc(C(=O)N2Cc3ccccc3Cc3ccccc32)cc1)c1ccccc1 [Example 24, N-[4-[(6,11-Dihydro-5H-dibenz[b,e]azepin-5-yl)carbonyl]phenyl]benzamide] | 0.17 | 0.41 | 
O=C(Nc1ccc(C(=O)N2Cc3ccccc3Cc3ccccc32)cc1)c1cccc(C(F)(F)F)c1 [Example 19, N-[4-[(6,11-Dihydro-5H-dibenz[b,e]azepine-5-yl)carbonyl]phenyl]-3-(trifluoromethyl)benzamide] | 1.3 | 1.2 | 
Cc1ccccc1C(=O)Nc1ccc(C(=O)N2Cc3cc(Cl)ccc3Oc3ccccc32)cc1 [Example 4] | 1.5 | 1.7 | 
O=C(Nc1ccc(C(=O)N2Cc3ccccc3Cc3ccccc32)cc1)c1cccnc1 [Example 17, N-[4-[(6,11-Dihydro-5H-dibenz[b,e]azepin-5-yl)-carbonyl]phenyl]-3-pyridinecarboxamide] |  |  | inhibition at 50 µM [1, 3]: 65%; inhibition at 50 µM [2, 4]: 52%
O=C(Nc1ccc(C(=O)N2Cc3ccccc3-c3ccccc32)cc1)c1ccc(Cl)c(Cl)c1 [Example 8, 3.4-Dichloro-N-[4-[(5(6H)-phenanthridinyl)carbonyl]phenyl]benzamide] | 2.8 | 1.5 | 
O=C(Nc1ccc(C(=O)N2Cc3ccccc3-c3ccccc32)cc1)c1c(Cl)cccc1Cl [Example 7] | 0.63 | 0.077 | 
